Numbered stars: 1 amine (or outer) side, 2 acyl side, 3 side chain; on linkers, the order of the positions; unused ones are H or OH. Square brackets hold non-standard residues; d marks the D form. Side chains are listed from the residue outwards. Peptide text beside a SMILES is read from it. * marks the point of attachment. Palmitoyl(16-(5-tetrazolyl)) = O=C(CCCCCCCCCCCCCCCc1nnn[nH]1)*; C18 diacid = O=C(O)CCCCCCCCCCCCCCCCC(=O)*; C16 diacid = O=C(O)CCCCCCCCCCCCCCC(=O)*; γGlu = O=C(O)[C@H](CCC(=O)[*:2])N[*:1]; Orn = NCCC[C@H](N)C(=O)O; AEEA = NCCOCCOCC(=O)O

The target of the assay is glucagon receptor (Homo sapiens, UniProt P47871). As to the kind of experiment: cell-based.
Chain of glucagon receptor (P47871 26-477): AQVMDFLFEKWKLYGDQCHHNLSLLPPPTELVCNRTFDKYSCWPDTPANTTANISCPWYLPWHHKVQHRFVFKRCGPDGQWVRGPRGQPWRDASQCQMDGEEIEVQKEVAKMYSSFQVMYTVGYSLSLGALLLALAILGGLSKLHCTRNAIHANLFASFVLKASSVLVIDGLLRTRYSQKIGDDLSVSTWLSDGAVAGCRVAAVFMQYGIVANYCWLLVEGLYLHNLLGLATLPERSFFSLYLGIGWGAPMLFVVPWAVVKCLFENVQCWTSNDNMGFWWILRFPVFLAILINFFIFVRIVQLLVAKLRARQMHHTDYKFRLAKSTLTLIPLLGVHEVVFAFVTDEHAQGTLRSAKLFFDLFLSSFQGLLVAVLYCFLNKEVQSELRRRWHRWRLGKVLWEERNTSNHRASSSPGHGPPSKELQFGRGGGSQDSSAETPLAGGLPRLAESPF
Method: The cells (14000 per well) were incubated (37° C., 5% CO2) overnight in 384-well plates. Next day the cells were loaded with a calcium responsive dye that only distributed into the cytoplasm. Probenecid, an inhibitor of the organic anion transporter, was added to prevent the dye from leaving the cell. A PDE inhibitor was added to prevent formatted cAMP from being degraded. […] End point data were collected after 6 minutes. An increase in intracellular cAMP was proportional to an increased in calcium concentrations in the cytoplasm. […] EC50-values were calculated in Prism5.
`CC(C)C[C@H](NC(=O)[C@H](Cc1ccc(O)cc1)NC(=O)[C@H](CCCCN)NC(=O)[C@H](CO)NC(=O)[C@H](Cc1ccc(O)cc1)NC(=O)[C@H](CC(=O)O)NC(=O)[C@H](CO)NC(=O)[C@@H](NC(=O)[C@H](Cc1ccccc1)NC(=O)[C@@H](NC(=O)CNC(=O)[C@H](CCC(N)=O)NC(=O)[C@H](CO)NC(=O)[C@@H](N)Cc1c[nH]cn1)[C@@H](C)O)[C@@H](C)O)C(=O)N[C@@H](CC(=O)O)C(=O)N[C@@H](CO)C(=O)N[C@@H](CCCCN)C(=O)N[C@@H](CCCCN)C(=O)N[C@@H](C)C(=O)N[C@@H](CCC(N)=O)C(=O)N[C@@H](CCC(=O)O)C(=O)N[C@@H](Cc1ccccc1)C(=O)N[C@H](C(=O)N[C@@H](CCCCNC(=O)COCCOCCNC(=O)COCCOCCNC(=O)CC[C@H](NC(=O)CCCCCCCCCCCCCCC(=O)O)C(=O)O)C(=O)N[C@@H](Cc1c[nH]c2ccccc12)C(=O)N[C@@H](CC(C)C)C(=O)N[C@@H](CC(C)C)C(=O)N[C@@H](CO)C(=O)N[C@H](C(=O)O)[C@@H](C)O)C(C)C` [Example 69, N^ε24-[2-[2-[2-[[2-[2-[2-[[(4S)-4-carboxy-4-(15-carboxypentadecanoylamino)butanoyl]amino]ethoxy]ethoxy]acetyl]amino]ethoxy]ethoxy]acetyl]-[Lys^17,Lys^18,Glu^21,Lys^24,Leu^27,Ser^28]-Glucagon] (H-HSQGTFTSDYSKYLDSKKAQEFVK([AEEA-AEEA-γGlu-C16 diacid])WLLST-OH): the EC50 (usually the concentration that produces a half-maximal response) turned out to be 0.006 nM.
The result for `CC(C)C[C@H](NC(=O)[C@H](Cc1ccc(O)cc1)NC(=O)[C@H](CCCCN)NC(=O)[C@H](CO)NC(=O)[C@H](Cc1ccc(O)cc1)NC(=O)[C@H](CC(=O)O)NC(=O)[C@H](CO)NC(=O)[C@@H](NC(=O)[C@H](Cc1ccccc1)NC(=O)[C@@H](NC(=O)CNC(=O)[C@H](CCC(N)=O)NC(=O)[C@H](CO)NC(=O)[C@@H](N)Cc1c[nH]cn1)[C@@H](C)O)[C@@H](C)O)C(=O)N[C@@H](CC(=O)O)C(=O)N[C@@H](CO)C(=O)N[C@@H](CCCCN)C(=O)N[C@@H](CCCCN)C(=O)N[C@@H](C)C(=O)N[C@@H](CCC(N)=O)C(=O)N[C@@H](CCC(=O)O)C(=O)N[C@@H](Cc1ccccc1)C(=O)N[C@H](C(=O)N[C@@H](CCCCNC(=O)COCCOCCNC(=O)COCCOCCNC(=O)CC[C@H](NC(=O)CCCCCCCCCCCCCCCCC(=O)O)C(=O)O)C(=O)N[C@@H](Cc1c[nH]c2ccccc12)C(=O)N[C@@H](CC(C)C)C(=O)N[C@@H](CC(C)C)C(=O)N[C@@H](CC(=O)O)C(=O)N[C@H](C(=O)O)[C@@H](C)O)C(C)C` [Example 67, N^ε24-[2-[2-[2-[[2-[2-[2-[[(4S)-4-carboxy-4-(17-carboxyheptadecanoylamino)butanoyl]amino]ethoxy]ethoxy]acetyl]amino]ethoxy]ethoxy]acetyl]-[Lys^17,Lys^18,Glu^21,Lys^24,Leu^27,Asp^28]-Glucagon] (H-HSQGTFTSDYSKYLDSKKAQEFVK([AEEA-AEEA-γGlu-C18 diacid])WLLDT-OH) reads 0.051 nM.
The result for `CC(C)C[C@H](NC(=O)[C@H](CC(C)C)NC(=O)[C@H](Cc1c[nH]c2ccccc12)NC(=O)[C@H](CCC(N)=O)NC(=O)[C@@H](NC(=O)[C@H](Cc1ccccc1)NC(=O)[C@H](CCC(=O)O)NC(=O)[C@H](CCC(N)=O)NC(=O)[C@H](C)NC(=O)[C@H](CCCCN)NC(=O)[C@H](CCCCN)NC(=O)[C@H](CO)NC(=O)[C@H](CC(=O)O)NC(=O)[C@H](CC(C)C)NC(=O)[C@H](Cc1ccc(O)cc1)NC(=O)[C@H](CCCCN)NC(=O)[C@H](CO)NC(=O)[C@H](Cc1ccc(O)cc1)NC(=O)[C@H](CC(=O)O)NC(=O)[C@H](CO)NC(=O)[C@@H](NC(=O)[C@H](Cc1ccccc1)NC(=O)[C@@H](NC(=O)CNC(=O)[C@H](CCC(N)=O)NC(=O)[C@H](CO)NC(=O)[C@@H](N)Cc1c[nH]cn1)[C@@H](C)O)[C@@H](C)O)C(C)C)C(=O)N[C@@H](CC(N)=O)C(=O)N[C@@H](CCCCNC(=O)COCCOCCNC(=O)COCCOCCNC(=O)CC[C@H](NC(=O)CCCCCCCCCCCCCCCCC(=O)O)C(=O)O)C(=O)O` [Example 68, N^ε29-[2-[2-[2-[[2-[2-[2-[[(4S)-4-carboxy-4-(17-carboxyheptadecanoylamino)butanoyl]amino]ethoxy]ethoxy]acetyl]amino]ethoxy]ethoxy]acetyl]-[Lys^17,Lys^18,Glu^21,Leu^27,Lys^29]-Glucagon] (H-HSQGTFTSDYSKYLDSKKAQEFVQWLLNK([AEEA-AEEA-γGlu-C18 diacid])-OH) reads 0.053 nM.
`CC(C)C[C@H](NC(=O)[C@H](Cc1ccc(O)cc1)NC(=O)[C@H](CCCCN)NC(=O)[C@H](CO)NC(=O)[C@H](Cc1ccc(O)cc1)NC(=O)[C@H](CC(=O)O)NC(=O)[C@H](CO)NC(=O)[C@@H](NC(=O)[C@H](Cc1ccccc1)NC(=O)[C@@H](NC(=O)CNC(=O)[C@H](CCC(N)=O)NC(=O)[C@H](CO)NC(=O)[C@@H](N)Cc1c[nH]cn1)[C@@H](C)O)[C@@H](C)O)C(=O)N[C@@H](CC(=O)O)C(=O)N[C@@H](CO)C(=O)N[C@@H](CCCCN)C(=O)N[C@@H](CCCCN)C(=O)N[C@@H](C)C(=O)N[C@@H](CCC(N)=O)C(=O)N[C@@H](CCC(=O)O)C(=O)N[C@@H](Cc1ccccc1)C(=O)N[C@H](C(=O)N[C@@H](CCCCNC(=O)COCCOCCNC(=O)CC[C@H](NC(=O)CCCCCCCCCCCCCCCCC(=O)O)C(=O)O)C(=O)N[C@@H](Cc1c[nH]c2ccccc12)C(=O)N[C@@H](CC(C)C)C(=O)N[C@@H](CC(C)C)C(=O)N[C@@H](CO)C(=O)N[C@H](C(=O)O)[C@@H](C)O)C(C)C` [Example 71, N^ε24-[2-[2-[2-[[(4S)-4-carboxy-4-(17-carboxyheptadecanoylamino)butanoyl]amino]ethoxy]ethoxy]acetyl]-[Lys^17,Lys^18,Glu^21,Lys^24,Leu^27,Ser^28]-Glucagon] (H-HSQGTFTSDYSKYLDSKKAQEFVK([AEEA-γGlu-C18 diacid])WLLST-OH) came in with an EC50 of 0.032 nM. Against the preceding compound, the EC50 is about 1.7-fold lower.
`CC(C)C[C@H](NC(=O)[C@H](Cc1ccc(O)cc1)NC(=O)[C@H](CCCCN)NC(=O)[C@H](CO)NC(=O)[C@H](Cc1ccc(O)cc1)NC(=O)[C@H](CC(=O)O)NC(=O)[C@H](CO)NC(=O)[C@@H](NC(=O)[C@H](Cc1ccccc1)NC(=O)[C@@H](NC(=O)CNC(=O)[C@H](CCC(N)=O)NC(=O)[C@H](CO)NC(=O)[C@@H](N)Cc1c[nH]cn1)[C@@H](C)O)[C@@H](C)O)C(=O)N[C@@H](CC(=O)O)C(=O)N[C@@H](CO)C(=O)N[C@@H](CCCCN)C(=O)N[C@@H](CCCCN)C(=O)N[C@@H](C)C(=O)N[C@@H](CCC(N)=O)C(=O)N[C@@H](CCC(=O)O)C(=O)N[C@@H](Cc1ccccc1)C(=O)N[C@H](C(=O)N[C@@H](CCCCNC(=O)COCCOCCNC(=O)COCCOCCNC(=O)CC[C@H](NC(=O)CCCCCCCCCCCCCCCc1nnn[nH]1)C(=O)O)C(=O)N[C@@H](Cc1c[nH]c2ccccc12)C(=O)N[C@@H](CC(C)C)C(=O)N[C@@H](CC(C)C)C(=O)N[C@@H](CO)C(=O)N[C@H](C(=O)O)[C@@H](C)O)C(C)C` [Example 70, N^ε24-[2-[2-[2-[[2-[2-[2-[[(4S)-4-carboxy-4-[16-(1H-tetrazol-5-yl)hexadecanoylamino]butanoyl]amino]ethoxy]ethoxy]acetyl]amino]ethoxy]ethoxy]acetyl]-[Lys^17,Lys^18,Glu^21,Lys^24,Leu^27,Ser^28]-Glucagon] (H-HSQGTFTSDYSKYLDSKKAQEFVK([AEEA-AEEA-γGlu-Palmitoyl(16-(5-tetrazolyl))])WLLST-OH) yielded an EC50 of 0.134 nM.
In turn, `CC(C)C[C@H](NC(=O)[C@H](Cc1ccc(O)cc1)NC(=O)[C@H](CCCCN)NC(=O)[C@H](CO)NC(=O)[C@H](Cc1ccc(O)cc1)NC(=O)[C@H](CC(=O)O)NC(=O)[C@H](CO)NC(=O)[C@@H](NC(=O)[C@H](Cc1ccccc1)NC(=O)[C@@H](NC(=O)CNC(=O)[C@H](CCC(N)=O)NC(=O)[C@H](CO)NC(=O)[C@@H](N)Cc1c[nH]cn1)[C@@H](C)O)[C@@H](C)O)C(=O)N[C@@H](CC(=O)O)C(=O)N[C@@H](CO)C(=O)N[C@@H](CCCCN)C(=O)N[C@@H](CCCCN)C(=O)N[C@@H](C)C(=O)N[C@@H](CCC(N)=O)C(=O)N[C@@H](CCC(=O)O)C(=O)N[C@@H](Cc1ccccc1)C(=O)N[C@H](C(=O)N[C@@H](CCCNC(=O)COCCOCCNC(=O)COCCOCCNC(=O)CC[C@H](NC(=O)CCCCCCCCCCCCCCCCC(=O)O)C(=O)O)C(=O)N[C@@H](Cc1c[nH]c2ccccc12)C(=O)N[C@@H](CC(C)C)C(=O)N[C@@H](CC(C)C)C(=O)N[C@@H](CO)C(=O)N[C@H](C(=O)O)[C@@H](C)O)C(C)C` [Example 73, N^ε24-[2-[2-[2-[[2-[2-[2-[[(4S)-4-carboxy-4-(17-carboxyheptadecanoylamino)butanoyl]amino]ethoxy]ethoxy]acetyl]amino]ethoxy]ethoxy]acetyl]-[Lys^17,Lys^18,Glu^21,Orn^24,Leu^27,Ser^28]-Glucagon] (H-HSQGTFTSDYSKYLDSKKAQEFV[Orn]([AEEA-AEEA-γGlu-C18 diacid])WLLST-OH) had an EC50 of 0.036 nM.
In the case of `CC(C)C[C@H](NC(=O)[C@H](Cc1ccc(O)cc1)NC(=O)[C@H](CCCCN)NC(=O)[C@H](CO)NC(=O)[C@H](Cc1ccc(O)cc1)NC(=O)[C@H](CC(=O)O)NC(=O)[C@H](CO)NC(=O)[C@@H](NC(=O)[C@H](Cc1ccccc1)NC(=O)[C@@H](NC(=O)CNC(=O)[C@H](CCC(N)=O)NC(=O)[C@H](CO)NC(=O)[C@@H](N)Cc1c[nH]cn1)[C@@H](C)O)[C@@H](C)O)C(=O)N[C@@H](CC(=O)O)C(=O)N[C@@H](CO)C(=O)N[C@@H](CCCCN)C(=O)N[C@@H](CCCCN)C(=O)N[C@@H](C)C(=O)N[C@@H](CCC(N)=O)C(=O)N[C@@H](CCC(=O)O)C(=O)N[C@@H](Cc1ccccc1)C(=O)N[C@H](C(=O)N[C@@H](CCCCNC(=O)COCCOCCNC(=O)COCCOCCNC(=O)[C@H](CCC(=O)O)NC(=O)CCCCCCCCCCCCCCCCC(=O)O)C(=O)N[C@@H](Cc1c[nH]c2ccccc12)C(=O)N[C@@H](CC(C)C)C(=O)N[C@@H](CC(C)C)C(=O)N[C@@H](CO)C(=O)N[C@H](C(=O)O)[C@@H](C)O)C(C)C` [Example 72, N^ε24-[2-[2-[2-[[2-[2-[2-[[(2S)-4-carboxy-2-(17-carboxyheptadecanoylamino)butanoyl]amino]ethoxy]ethoxy]acetyl]amino]ethoxy]ethoxy]acetyl]-[Lys17,Lys18,Glu21,Lys24,Leu27,Ser28]-Glucagon] (H-HSQGTFTSDYSKYLDSKKAQEFVK([AEEA-AEEA-Glu-C18 diacid])WLLST-OH), the EC50 stood at 0.057 nM.

Values taken from patent US20170051034A1 (Novo Nordisk A/S, priority 2010, published 2017).
